In ChEMBL document CHEMBL4229524, “Design, synthesis and preclinical evaluation of 5-methyl-N4-aryl-furo[2,3-d]pyrimidines as single agents with combination chemotherapy potential” (Bioorg Med Chem Lett, 2018):

What was measured:
[1] = target: Epidermal growth factor receptor (Homo sapiens, UniProt P00533); type: cell-based
[2] = target: Platelet-derived growth factor receptor beta (Homo sapiens, UniProt P09619); test: Inhibition of PDGF-BB-induced PDGFRbeta activation in human SH-SY5Y cells pretreated for 60 mins followed by PDGF-BB addition and measured after 10 mins by ELISA; type: cell-based
Platelet-derived growth factor receptor beta, sequence (P09619 whole entry): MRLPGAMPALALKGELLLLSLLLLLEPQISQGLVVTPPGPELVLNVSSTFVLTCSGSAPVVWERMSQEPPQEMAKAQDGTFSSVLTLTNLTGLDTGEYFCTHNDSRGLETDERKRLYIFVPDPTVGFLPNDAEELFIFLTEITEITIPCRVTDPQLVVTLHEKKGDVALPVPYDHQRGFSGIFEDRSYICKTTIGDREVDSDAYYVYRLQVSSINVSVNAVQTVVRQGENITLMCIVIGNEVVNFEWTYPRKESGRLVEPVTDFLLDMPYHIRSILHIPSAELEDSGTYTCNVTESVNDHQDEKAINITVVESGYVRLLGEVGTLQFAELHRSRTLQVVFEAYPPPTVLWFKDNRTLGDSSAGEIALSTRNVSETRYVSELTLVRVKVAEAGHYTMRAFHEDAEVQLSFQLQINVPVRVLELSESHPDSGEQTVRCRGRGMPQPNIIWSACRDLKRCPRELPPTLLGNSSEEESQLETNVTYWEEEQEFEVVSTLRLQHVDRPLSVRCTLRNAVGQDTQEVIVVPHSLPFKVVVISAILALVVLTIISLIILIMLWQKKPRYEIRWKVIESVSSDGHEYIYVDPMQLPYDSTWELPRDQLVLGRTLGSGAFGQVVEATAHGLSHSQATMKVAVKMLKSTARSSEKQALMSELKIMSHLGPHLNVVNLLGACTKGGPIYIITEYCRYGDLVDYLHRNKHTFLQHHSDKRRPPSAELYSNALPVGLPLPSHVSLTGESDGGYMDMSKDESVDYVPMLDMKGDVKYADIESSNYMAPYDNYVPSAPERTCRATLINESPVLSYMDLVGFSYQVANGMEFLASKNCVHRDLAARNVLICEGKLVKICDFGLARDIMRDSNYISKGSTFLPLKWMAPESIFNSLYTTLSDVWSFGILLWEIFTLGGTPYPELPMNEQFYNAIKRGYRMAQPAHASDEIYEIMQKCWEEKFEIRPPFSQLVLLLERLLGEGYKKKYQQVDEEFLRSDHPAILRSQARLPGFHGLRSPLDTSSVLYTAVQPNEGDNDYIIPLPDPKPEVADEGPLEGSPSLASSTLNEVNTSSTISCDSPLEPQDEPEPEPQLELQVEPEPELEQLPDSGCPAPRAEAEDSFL

[3] = target: Vascular endothelial growth factor receptor 2 (Homo sapiens, UniProt P35968); type: cell-based
Vascular endothelial growth factor receptor 2, sequence (P35968 whole entry): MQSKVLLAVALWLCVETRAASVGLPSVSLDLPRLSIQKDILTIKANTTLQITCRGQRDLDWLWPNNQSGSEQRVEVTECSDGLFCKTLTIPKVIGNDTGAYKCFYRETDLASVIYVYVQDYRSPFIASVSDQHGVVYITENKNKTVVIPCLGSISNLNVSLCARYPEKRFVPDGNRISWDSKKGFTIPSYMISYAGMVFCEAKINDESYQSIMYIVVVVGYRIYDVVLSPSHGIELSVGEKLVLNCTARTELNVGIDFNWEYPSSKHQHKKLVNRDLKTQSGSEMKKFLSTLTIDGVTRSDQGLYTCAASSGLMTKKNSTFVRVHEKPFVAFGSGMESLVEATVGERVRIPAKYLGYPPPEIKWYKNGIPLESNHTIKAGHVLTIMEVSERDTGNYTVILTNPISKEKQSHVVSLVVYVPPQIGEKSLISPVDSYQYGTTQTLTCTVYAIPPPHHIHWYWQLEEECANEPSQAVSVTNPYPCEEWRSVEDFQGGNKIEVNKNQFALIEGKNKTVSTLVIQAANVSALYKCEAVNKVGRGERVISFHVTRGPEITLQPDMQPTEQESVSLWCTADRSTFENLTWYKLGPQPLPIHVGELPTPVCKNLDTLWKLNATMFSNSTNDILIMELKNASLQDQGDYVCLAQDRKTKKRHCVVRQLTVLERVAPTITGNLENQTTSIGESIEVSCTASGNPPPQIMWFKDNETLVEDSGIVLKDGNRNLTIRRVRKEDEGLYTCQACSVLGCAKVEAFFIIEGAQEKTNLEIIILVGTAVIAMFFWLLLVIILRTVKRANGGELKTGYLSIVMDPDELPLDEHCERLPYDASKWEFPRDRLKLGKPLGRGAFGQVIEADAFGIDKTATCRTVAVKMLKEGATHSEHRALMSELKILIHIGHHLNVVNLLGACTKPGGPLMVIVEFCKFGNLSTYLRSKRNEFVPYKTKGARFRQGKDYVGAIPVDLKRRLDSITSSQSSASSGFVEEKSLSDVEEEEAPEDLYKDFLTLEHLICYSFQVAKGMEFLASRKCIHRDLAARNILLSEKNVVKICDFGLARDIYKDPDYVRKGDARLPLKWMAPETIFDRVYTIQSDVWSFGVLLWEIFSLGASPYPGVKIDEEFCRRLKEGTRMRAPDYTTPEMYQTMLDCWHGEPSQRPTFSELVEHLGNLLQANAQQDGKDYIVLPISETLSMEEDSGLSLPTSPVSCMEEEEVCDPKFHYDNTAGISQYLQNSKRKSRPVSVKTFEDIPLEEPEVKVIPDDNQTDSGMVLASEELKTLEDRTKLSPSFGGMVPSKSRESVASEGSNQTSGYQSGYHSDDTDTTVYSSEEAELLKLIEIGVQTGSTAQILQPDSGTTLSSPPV

A-431 = test: Cytotoxicity against human A431 cells over-expressing EGFR; type: functional, cell-based
Chorioallantoic membrane [4] = test: Antiangiogenic activity in Leghorn chicken embryo chorioallantoic membrane after 40 hrs by microscopic analysis; type: functional, tissue-based; details: Gallus gallus
A10 = test: Induction of microtubule depolymerization in rat A10 cells after 18 hrs by indirect immunofluorescence method; type: functional, cell-based; details: A10, 18 h
Chorioallantoic membrane [5] = test: Potency index, ratio of sunitinib IC50 to test compound IC50 for antiangiogenic activity in Leghorn chicken embryo chorioallantoic membrane; type: functional, tissue-based; details: Gallus gallus
SK-OV-3 = test: Antiproliferative activity against human SKOV3 cells after 72 hrs by sulforhodamine B assay; type: functional, cell-based; details: SK-OV-3, 72 h
[6] = Resistance index, ratio of IC50 for human HeLa cells to IC50 for human wild-type Hela-beta3 cells; type: functional
[7] = Resistance index, ratio of IC50 for human SKOV3-MDR1-M6/6 cells to IC50 for human SKOV3 cells; type: functional
HeLa = test: Antiproliferative activity against human HeLa cells after 72 hrs by sulforhodamine B assay; type: functional, cell-based
[8] = Antiproliferative activity against human SKOV3-MDR1-M6/6 cells after 72 hrs by sulforhodamine B assay; type: functional; details: SKOV3-MDR1-M6/6, 72 h
[9] = Antiproliferative activity against human wild-type Hela-beta3 cells after 72 hrs by sulforhodamine B assay; type: functional
MDA-MB-435 = test: Antiproliferative activity against human MDA-MB-435 cells after 72 hrs by sulforhodamine B assay; type: functional, cell-based; details: MDA-MB-435, 72 h

Epidermal growth factor receptor, sequence (P00533 whole entry): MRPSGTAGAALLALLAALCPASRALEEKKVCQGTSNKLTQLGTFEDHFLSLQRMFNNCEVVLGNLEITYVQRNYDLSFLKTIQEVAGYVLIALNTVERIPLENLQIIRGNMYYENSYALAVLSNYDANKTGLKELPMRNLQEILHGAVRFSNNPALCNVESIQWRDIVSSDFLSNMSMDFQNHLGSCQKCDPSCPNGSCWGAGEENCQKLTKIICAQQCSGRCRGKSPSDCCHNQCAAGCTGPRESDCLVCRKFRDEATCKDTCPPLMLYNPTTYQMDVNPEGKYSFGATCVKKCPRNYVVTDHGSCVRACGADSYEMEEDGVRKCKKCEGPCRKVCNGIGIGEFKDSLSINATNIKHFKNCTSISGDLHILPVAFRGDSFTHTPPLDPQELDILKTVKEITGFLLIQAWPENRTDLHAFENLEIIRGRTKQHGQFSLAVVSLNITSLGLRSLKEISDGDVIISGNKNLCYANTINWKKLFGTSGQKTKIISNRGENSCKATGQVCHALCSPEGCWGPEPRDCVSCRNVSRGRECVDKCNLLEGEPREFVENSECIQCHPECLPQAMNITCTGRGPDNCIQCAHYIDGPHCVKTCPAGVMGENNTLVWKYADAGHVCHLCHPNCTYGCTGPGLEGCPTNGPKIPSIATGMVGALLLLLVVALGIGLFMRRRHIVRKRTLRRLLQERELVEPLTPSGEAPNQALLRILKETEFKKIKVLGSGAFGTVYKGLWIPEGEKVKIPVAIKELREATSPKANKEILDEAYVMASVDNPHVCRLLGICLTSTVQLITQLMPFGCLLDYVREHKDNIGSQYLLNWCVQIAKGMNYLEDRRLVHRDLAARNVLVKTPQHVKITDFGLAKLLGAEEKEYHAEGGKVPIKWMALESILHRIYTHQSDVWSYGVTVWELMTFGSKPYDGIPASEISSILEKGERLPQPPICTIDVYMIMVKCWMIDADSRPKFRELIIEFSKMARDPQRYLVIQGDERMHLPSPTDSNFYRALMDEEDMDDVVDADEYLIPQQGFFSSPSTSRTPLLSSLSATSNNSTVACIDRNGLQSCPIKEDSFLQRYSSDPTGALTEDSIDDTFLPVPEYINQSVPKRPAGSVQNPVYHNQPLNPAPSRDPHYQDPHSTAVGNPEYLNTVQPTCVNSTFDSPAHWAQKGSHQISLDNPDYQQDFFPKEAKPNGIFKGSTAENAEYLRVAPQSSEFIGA

| Compound | IC50 [1] [nM] | IC50 [2] [nM] | IC50 [3] [nM] | EC50 (A10) [nM] | IC50 (SK-OV-3) [nM] | IC50 (HeLa) [nM] | IC50 (MDA-MB-435) [nM] | IC50 (A-431) [nM] | IC50 (Chorioallantoic membrane [4]) [nM] | Ratio IC50 (Chorioallantoic membrane [5]) | Ratio IC50 [6] | Ratio IC50 [7] | IC50 [8] [nM] | IC50 [9] [nM] |
| --- | --- | --- | --- | --- | --- | --- | --- | --- | --- | --- | --- | --- | --- | --- |
| Cc1coc2ncnc(Nc3ccc([N+](=O)[O-])cc3)c12 | > 200 | > 200 | > 200 | > 10000 |  |  |  |  |  |  |  |  |  |  |
| Cc1coc2ncnc(N(C)c3ccc([N+](=O)[O-])cc3)c12 | > 200 | > 200 | > 200 | > 10000 |  |  |  | 433 | 1060 |  |  |  |  |  |
| COc1ccc(/C=C\c2cc(OC)c(OC)c(OC)c2)cc1O [COMBRETASTATIN A4] |  |  |  | 9.8 |  |  |  |  |  |  |  |  |  |  |

The next lines start with results.

| IC50 [1] [nM] | IC50 [2] [nM] | IC50 [3] [nM] | EC50 (A10) [nM] | IC50 (SK-OV-3) [nM] | IC50 (HeLa) [nM] | IC50 (MDA-MB-435) [nM] | Compound | IC50 (A-431) [nM] | IC50 (Chorioallantoic membrane [4]) [nM] | Ratio IC50 (Chorioallantoic membrane [5]) | Ratio IC50 [6] | Ratio IC50 [7] | IC50 [8] [nM] | IC50 [9] [nM] |
| --- | --- | --- | --- | --- | --- | --- | --- | --- | --- | --- | --- | --- | --- | --- |
| 283 | 57.3 | 38.1 |  |  |  |  | COc1ccc(Nc2ncnc3occ(C)c23)cc1 | 292 | 445 |  |  |  |  |  |
| > 200 | > 200 | > 200 | > 10000 |  |  |  | CNc1ccc(Nc2ncnc3occ(C)c23)cc1 |  |  |  |  |  |  |  |
| 92.5 | 51.4 | 67.3 |  |  |  |  | CCN(c1ccc(OC)cc1)c1ncnc2occ(C)c12 | 3.4 | 812 |  |  |  |  |  |
| 7.1 | 38.9 | 12 |  |  |  |  | CCCN(c1ccc(OC)cc1)c1ncnc2occ(C)c12 | 2.3 | 301 | 4 |  |  |  |  |
| 6.4 | 57.8 | 12.7 | 240 | 95 | 74 | 74 | CNc1ccc(N(C)c2ncnc3occ(C)c23)cc1 | 2.9 | 707 |  | 1.2 | 1.1 | 101 | 86 |
